Structures can show the parent of a compound that is named as a salt.
Columns and labels:
[1] = test system: abdominal pain threshold on colorectal distension; assay: Elevation of threshold value of abdominal pain in in vivo rat colorectal distension model; conditions: rats, oral administration
Experimental: The tests were conducted by a method of Saito et al. (Anesth. Analg. 1998; 87: 382-387).
Male Crj:CD rats (250-350 g) were used. A test compound was orally administered to them (n=8). A balloon (length: 7 cm) for dilating the colon was connected to a transducer . After fasting each rat for one day, the balloon was noninvasively inserted internally into the colorectal portion and the base of the balloon was positioned 1 cm from anus under light anesthesia with ether. Water was injected into the balloon at a rate of 0.9 ml/min until the inner pressure in the balloon reached 100 mmHg (cut off value). When the contraction of the abdominal muscle was macroscopically observed during the colon distension, the pressure in the balloon was taken as the threshold value of abdominal pain. The colon distension was conducted at intervals of at least 5 minutes.
The analgesic effect was determined according to the following formula: Analgesic effect (%)=[(threshold value of abdominal pain after treatment with test compound)−(threshold value of abdominal pain before treatment with test compound)]/[100−(threshold value of abdominal pain before treatment with test compound)]×100.
The analgesic effect was calculated as the dose of the test compound required for 50% control (ID50).

[2] = test system: 5-HTP-induced defecation (diarrhea or loose stool); assay: In vivo 5-hydroxytryptophan (5-HTP)-induced defecation model of mice; design: species or system mouse; conditions: oral administration 30 minutes before 5-HTP 10 mg/kg s.c., fecal score over 30 minutes
Experimental: The tests were conducted by a method of G. J. Sanger et al. (British Journal of Pharmacology, 130: 706-712, 2000).
Male SLC:ICR mice (6 weeks old) were moved to 5stainless steel cages connected together for mice. After the naturalization for at least one hour, a test compound was orally administered (n=10). 30 minutes after, 10 mg/5 mL/kg of 5-HTP or vehicle (5mL/kg of physiological saline for a group for which 5-HTP was not used) was injected subcutaneously. The state of the fecal pellets of each mouse excreted in 30 minutes immediately after the injection was observed [scored as 0 (normal fecal pellets or no fecal pellets) or 1(diarrhea or loose stool)]. The score obtained by subtracting the score of the group to which 5-HTP had not been given from the score of the group to which 5-HTP had been given was taken as 100%. The amount of a test compound for 50% control (ID50) was calculated.

SMILES | ID50 (analgesic effect, threshold value of abdominal pain) [1] [mg/kg] | ID50 (5-HTP-induced defecation) [2] [mg/kg]
Fc1ccc2c(c1)OCc1ccccc1N2C[C@H]1CCCN1CCc1ccc(N2CCCC2)cc1 [Example 12, (R)-8-Fluoro-5,11-dihydro-5-[1-(4-pyrrolidinophenethyl)pyrrolidin-2-yl-methyl]dibenzo[b,e]1,4]oxazepine dihydrochloride] | 1.9 | –
CN(C)c1ccc(CCN2CCC[C@@H]2CN2c3cc(Cl)ccc3COc3ccccc32)cc1 [Example 8, (R)-3-Chloro-5,11-dihydro-5-[1-(4-dimethylaminophenethyl)pyrrolidin-2-ylmethyl]dibenzo[b,e][1,4]oxazepine dihydrochloride] | 2.6 | 8.3
